Source: ChEMBL document CHEMBL1201862, “PubChem BioAssay data set” (2004)
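Step 1: Grow cells in 96-well plates. Step 2: Expose to compound for 48 hours at 5 concentrations. Step 3: Interpolate endpoints linearly; if unreached, use highest concentration. GI50 = concentration required for 50% inhibition of growth.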 Calls of active or inactive are those of the source. Rule as the data show it: active = GI50 up to about 1.1 µM and inactive = higher.

Legend:
Experiment in all cases: NCI-60 cell line screen, 48 h
MDA-MB-435 = system: MDA-MB-435
U-251 = system: U-251
LOX IMVI = system: LOX IMVI
HOP-62 = system: HOP-62
M14 = system: M14
SF-295 = system: SF-295
SR = system: SR
MOLT-4 = system: MOLT-4
SN12C = system: SN12C
HL-60 = system: HL-60
IGROV-1 = system: IGROV-1
EKVX = system: EKVX
A549 = system: A549
HT-29 = system: HT-29
SNB-75 = system: SNB-75
SW-620 = system: SW-620
T47D = system: T47D
TK-10 = system: TK-10
HCT-15 = system: HCT-15
HOP-92 = system: HOP-92

| Structure (SMILES) | GI50 (MDA-MB-435) | GI50 (U-251) | GI50 (LOX IMVI) | GI50 (HOP-62) | GI50 (M14) | GI50 (SF-295) | GI50 (SR) | GI50 (MOLT-4) | GI50 (SN12C) | GI50 (HL-60) | GI50 (IGROV-1) | GI50 (EKVX) | GI50 (A549) | GI50 (HT-29) | GI50 (SNB-75) | GI50 (SW-620) | GI50 (T47D) | GI50 (TK-10) | GI50 (HCT-15) [µM] | GI50 (HOP-92) |
| --- | --- | --- | --- | --- | --- | --- | --- | --- | --- | --- | --- | --- | --- | --- | --- | --- | --- | --- | --- | --- |
| Oc1ccc(-c2nc(-c3cccnc3)c(-c3ccc(F)cc3)[nH]2)cc1 | 16.2 µM (inactive) | 17.3 µM (inactive) | 12.5 µM (inactive) | 21.6 µM (inactive) | 17.7 µM (inactive) | 16.7 µM (inactive) | 16.9 µM (inactive) | 10 µM (inactive) | 23.9 µM (inactive) | 15.8 µM (inactive) | 17.5 µM (inactive) | 19.3 µM (inactive) | 21.8 µM (inactive) | 18.1 µM (inactive) | 18.2 µM (inactive) | 17.8 µM (inactive) | 17.4 µM (inactive) | 18.6 µM (inactive) | 22.7 | – |
| COc1cccc2c1OC1c3ccccc3OCC1C2 (stereo not drawn) | > 100 µM (inactive) | > 100 µM (inactive) | > 100 µM (inactive) | > 100 µM (inactive) | > 100 µM (inactive) | > 100 µM (inactive) | > 100 µM (inactive) | 96.2 µM (inactive) | > 100 µM (inactive) | – | 41.1 µM (inactive) | 44.2 µM (inactive) | > 100 µM (inactive) | > 100 µM (inactive) | < 0.01 µM (active) | > 100 µM (inactive) | 44.1 µM (inactive) | 43.9 µM (inactive) | > 100 | – |
| COc1ccc(C(=O)/C=C/c2ccc(OCCCOc3ccc(/C=C/C(=O)c4ccc(OC)cc4)cc3)cc2)cc1 | > 100 µM (inactive) | > 100 µM (inactive) | – | > 100 µM (inactive) | > 100 µM (inactive) | > 100 µM (inactive) | > 100 µM (inactive) | > 100 µM (inactive) | > 100 µM (inactive) | > 100 µM (inactive) | > 100 µM (inactive) | > 100 µM (inactive) | > 100 µM (inactive) | 56.1 µM (inactive) | 45.4 µM (inactive) | > 100 µM (inactive) | > 100 µM (inactive) | > 100 µM (inactive) | > 100 | – |
| Nc1ccc(Oc2ccc(C3(c4ccc(Oc5ccc(N)c(O)c5)cc4)C4CC5CC(C4)CC3C5)cc2)cc1O | 2.02 µM (inactive) | 1.7 µM (inactive) | 1.81 µM (inactive) | 2.5 µM (inactive) | 1.71 µM (inactive) | 3.06 µM (inactive) | 1.17 µM (inactive) | 1.66 µM (inactive) | 1.9 µM (inactive) | 2.11 µM (inactive) | 1.75 µM (inactive) | 2.2 µM (inactive) | 1.81 µM (inactive) | 1.64 µM (inactive) | – | 1.77 µM (inactive) | 3.27 µM (inactive) | 2.12 µM (inactive) | 1.73 | 2.92 µM (inactive) |
| COc1cc2c(cc1OC)C(=O)C1(C2)[C@H](c2ccccc2)C2C(=O)c3cc(OC)c(OC)cc3C2[C@H]1c1ccccc1 (stereo partly drawn) | > 100 µM (inactive) | > 100 µM (inactive) | > 100 µM (inactive) | > 100 µM (inactive) | > 100 µM (inactive) | > 100 µM (inactive) | > 100 µM (inactive) | > 100 µM (inactive) | > 100 µM (inactive) | > 100 µM (inactive) | > 100 µM (inactive) | > 100 µM (inactive) | 31 µM (inactive) | > 100 µM (inactive) | 24.8 µM (inactive) | > 100 µM (inactive) | 10.5 µM (inactive) | > 100 µM (inactive) | > 100 | – |
| COC(=O)c1ccc(/C=C2\Oc3cc(O)ccc3C2=O)cc1 | > 100 µM (inactive) | 48.8 µM (inactive) | – | > 100 µM (inactive) | 83.8 µM (inactive) | 36.8 µM (inactive) | 42.3 µM (inactive) | 43.7 µM (inactive) | 53.8 µM (inactive) | 44.2 µM (inactive) | > 100 µM (inactive) | 49.2 µM (inactive) | 77.3 µM (inactive) | – | 39.4 µM (inactive) | 78.2 µM (inactive) | 54.3 µM (inactive) | 53 µM (inactive) | 53.3 | – |
| CCOC(=O)c1cc(C2CCN(c3ccccc3)C2=O)c(C(=O)/C=C(/C)N)[nH]1 (stereo not drawn) | > 100 µM (inactive) | 15 µM (inactive) | 28 µM (inactive) | 18.1 µM (inactive) | 65 µM (inactive) | 15.9 µM (inactive) | > 100 µM (inactive) | 39.6 µM (inactive) | 21.8 µM (inactive) | > 100 µM (inactive) | 33.7 µM (inactive) | 23.6 µM (inactive) | 25.6 µM (inactive) | 12.9 µM (inactive) | 8.05 µM (inactive) | 45.8 µM (inactive) | 32.8 µM (inactive) | 28.2 µM (inactive) | > 100 | – |
| CCOC(=O)c1ccc(NCC#CCN2CCCCC2)cc1 | > 100 µM (inactive) | > 100 µM (inactive) | > 100 µM (inactive) | > 100 µM (inactive) | 59.2 µM (inactive) | – | > 100 µM (inactive) | > 100 µM (inactive) | > 100 µM (inactive) | 60.1 µM (inactive) | > 100 µM (inactive) | > 100 µM (inactive) | > 100 µM (inactive) | > 100 µM (inactive) | – | > 100 µM (inactive) | > 100 µM (inactive) | – | 89.9 | > 100 µM (inactive) |
| O=C1c2ccccc2C(=O)C2NC(CCCCCSSCCCCCC3=NC4C(=O)c5ccccc5C(=O)C4N3)=NC12 (stereo not drawn) | > 100 µM (inactive) | 17.6 µM (inactive) | > 100 µM (inactive) | > 100 µM (inactive) | 4.57 µM (inactive) | 4.57 µM (inactive) | 1.48 µM (inactive) | 3.8 µM (inactive) | – | > 100 µM (inactive) | 12.9 µM (inactive) | > 100 µM (inactive) | – | > 100 µM (inactive) | – | 90.8 µM (inactive) | > 100 µM (inactive) | 68.2 µM (inactive) | 40.6 | 5.56 µM (inactive) |
| O=C(O)c1ccccc1C(=O)Nc1cc2c(cc1Br)-c1ccccc1C2=O | > 100 µM (inactive) | 87.5 µM (inactive) | 81.1 µM (inactive) | > 100 µM (inactive) | > 100 µM (inactive) | – | – | 79.8 µM (inactive) | > 100 µM (inactive) | 92.5 µM (inactive) | > 100 µM (inactive) | > 100 µM (inactive) | > 100 µM (inactive) | > 100 µM (inactive) | 47.5 µM (inactive) | > 100 µM (inactive) | > 100 µM (inactive) | > 100 µM (inactive) | > 100 | 48.1 µM (inactive) |
| CCC(CN(C)C)C(=O)c1ccco1 (stereo not drawn) | > 100 µM (inactive) | > 100 µM (inactive) | > 100 µM (inactive) | > 100 µM (inactive) | > 100 µM (inactive) | > 100 µM (inactive) | > 100 µM (inactive) | 22.3 µM (inactive) | > 100 µM (inactive) | – | > 100 µM (inactive) | > 100 µM (inactive) | > 100 µM (inactive) | > 100 µM (inactive) | > 100 µM (inactive) | > 100 µM (inactive) | > 100 µM (inactive) | > 100 µM (inactive) | > 100 | 23 µM (inactive) |
| COc1ccc2c(c1)-c1[nH]c3ccc(OC)cc3c1CC2 | 17.4 µM (inactive) | 17.3 µM (inactive) | 15.2 µM (inactive) | 16.3 µM (inactive) | 15 µM (inactive) | 13.1 µM (inactive) | 13.6 µM (inactive) | 11 µM (inactive) | 14.8 µM (inactive) | – | 13.6 µM (inactive) | 7.28 µM (inactive) | 14.3 µM (inactive) | 12.3 µM (inactive) | 13.5 µM (inactive) | 22.4 µM (inactive) | 8.05 µM (inactive) | 16.8 µM (inactive) | 10.6 | 19.2 µM (inactive) |
| O=C(O)CC(Sc1ccccc1)c1ccccc1 (stereo not drawn) | > 100 µM (inactive) | > 100 µM (inactive) | > 100 µM (inactive) | > 100 µM (inactive) | > 100 µM (inactive) | > 100 µM (inactive) | – | > 100 µM (inactive) | > 100 µM (inactive) | > 100 µM (inactive) | > 100 µM (inactive) | > 100 µM (inactive) | > 100 µM (inactive) | > 100 µM (inactive) | > 100 µM (inactive) | > 100 µM (inactive) | > 100 µM (inactive) | > 100 µM (inactive) | > 100 | > 100 µM (inactive) |
| CN(Cc1cnc2nc(N)nc(N)c2n1)c1ccc(C(=O)NCCCS(=O)(=O)O)cc1 | > 100 µM (inactive) | > 100 µM (inactive) | 75.9 µM (inactive) | > 100 µM (inactive) | > 100 µM (inactive) | > 100 µM (inactive) | 37.6 µM (inactive) | > 100 µM (inactive) | > 100 µM (inactive) | – | > 100 µM (inactive) | > 100 µM (inactive) | > 100 µM (inactive) | > 100 µM (inactive) | > 100 µM (inactive) | > 100 µM (inactive) | > 100 µM (inactive) | > 100 µM (inactive) | > 100 | 0.0264 µM (active) |
| O=c1c(C(c2ccc(/C=C/c3ccccc3)cc2)c2c(O)oc3ccccc3c2=O)c(O)oc2ccccc12 | 29 µM (inactive) | 18.5 µM (inactive) | 25.8 µM (inactive) | 27.8 µM (inactive) | – | – | – | 24.1 µM (inactive) | 21.8 µM (inactive) | 49.3 µM (inactive) | 27.3 µM (inactive) | 28.6 µM (inactive) | – | 20.3 µM (inactive) | 19.7 µM (inactive) | 37.9 µM (inactive) | 39.2 µM (inactive) | 92.5 µM (inactive) | 44 | 23.1 µM (inactive) |
